The values below come from patent publication US10172869B2, “Progesterone receptor modulators for use in the therapy of uterine fibroids” (PregLem SA, priority 2013, dated 2019).

Holding throughout (format): in vivo, human
One data set concerns uterine fibroids. As to the kind of experiment: Example 1 Phase III study: uterine bleeding, amenorrhea and return of menstruation (PBAC). Here is the method:
(§1) Multicenter, Phase III Study to Investigate the Efficacy and Safety of 3-Months of Treatment with UPA Followed by 10 Days of Treatment with NETA or Placebo
(§2) All patients received a 3-month treatment course of UPA 10 mg once-daily followed by randomized oral NETA 10 mg once-daily or matching placebo for 10 days. UPA treatment was started during the first 4 days of menstruation. NETA or placebo was taken daily for the first 10 days following the cessation of UPA. The schedule incorporated the potential for women to enter an extension study involving repeated intermittent courses of UPA 10 mg.
(§3) In the clinical trial the effect of treatment of uterine fibroids have been assessed by means of parameters such as uterine bleeding using the pictorial blood-loss assessment chart (PBAC), condition of the uterus using transvaginal ultrasound (TVUS) and endometrial biopsy, endometrial histology using endometrial biopsy and pain using the Short-Form McGill Pain Questionnaire (SF-MPQ and quality of life using the Uterine Fibroid Symptom and Health-Related Quality of Life (UFS-QoL) questionnaire.
The efficacy end points were: percentage of amenorrheic patients at the end of UPA treatment; change from baseline in the volume of the three largest myomas to end of UPA treatment and 2 weeks after menstruation following end of NETA/placebo treatment; and change from baseline in pain and QoL to end of UPA treatment.
(§4) Exploratory endpoints included assessment of the strength of the first menstruation after UPA treatment (using PBAC), time to return of menstruation following treatment end, and frequency of post-treatment PAEC observed in the endometrial biopsy after return of menstruation.

A short description of data set [1]: Example 1 Phase III study: adverse events (TEAEs, SAEs). Here is the method:
as §1, §2
(§5) The safety endpoints included the number and proportion of patients experiencing treatment-emergent adverse events (TEAEs), including clinically significant changes in vital signs, physical examination, gynecological or breast examination, electrocardiogram (ECG), ovarian ultrasound, changes from baseline in endometrial thickness and clinically significant changes in endometrium biopsy. Other safety endpoints were change from baseline in hematology, coagulation, biochemistry, lipids, adrenocorticotropic hormone (ACTH), thyroid stimulating hormone (TSH) and prolactin, as well as serum levels of estradiol (E2).

Data set [2] relates to endometrium. As to the kind of experiment: Example 1 Phase III study: endometrial histology (biopsy). Here is the method:
as §1, §2, §3, §5, §4

Data set [3] relates to endometrium. The data set is described as follows: Example 1 Phase III study: endometrial thickness. Particulars: after NETA double-blind treatment; 0% at screening. How it is done:
as §1, §2, §5

The subject of data set [4] is myomas and heavy uterine bleeding. As to the kind of experiment: Example 2 long-term extension study: uterine bleeding, amenorrhea and return of menstruation (PBAC). An excerpt:
(§6) Long-Term Extension of a Multicenter, Phase III Study to Investigate the Efficacy and Safety of 3-Months of Treatment with UPA Followed by 10 Days of Treatment with NETA or Placebo in Subjects with Myomas and Heavy Uterine Bleeding
(§7) The study consisted of three periods of 3 months open-label UPA treatment, each followed by 10 days of double-blind treatment with NETA or placebo and then a drug-free period. Subjects were randomly assigned to a NETA or matching placebo arm with a 1:1 ratio.
In study described in Example 1, 251 subjects were screened at 21 sites and 209 subjects started treatment with UPA of which 202 attended the end of UPA treatment visit. Of those that completed study of Example 1 (190 subjects), 132 subjects from 19 sites opted to continue in to the extension study.
(§8) In the study of Example 1 and for each present study courses, UPA 10 mg was orally administered once daily for a period of 90 days, followed by 10 mg NETA or matching placebo once daily for a period of 10 days. The first treatment course in the present study consisted of 90 days UPA 10 mg treatment followed by 10 days of double-blind treatment (same as in Example 1 study) started between the first and fourth day of menstruation (inclusive) following visit after the end of treatment, or one month later if uterine sparing surgery had been performed and myomas were still present. The second and third treatment courses of the present study started on the first day of menstruation following visits after ends of each treatment courses, respectively.
(§9) Parameters assessed are the same as it was described in Example 1.

Data set [5] is described as follows: Example 2 long-term extension study: safety assessments (TEAEs, SAEs). The note with it: intermittent repeated administration schedule.
Excerpt: as §6, §7, §8, §9

Data set [6] deals with endometrium. The data set is described as follows: Example 2 long-term extension study: endometrium thickness and endometrium biopsy. Particulars: after each treatment course.
Excerpt: as §6, §7, §8, §9

Regarding `C#C[C@]1(OC(C)=O)CC[C@H]2[C@@H]3CCC4=CC(=O)CC[C@@H]4[C@H]3CC[C@@]21C` [NETA, norethindrone (norethisterone) acetate], the “median return to menstruation following end of UPA treatment” value in the data set with uterine fibroids (NETA 10 mg once-daily for 10 days after UPA, p≤0.001 vs placebo) was 14.0 days. Further, the “median change in PBAC score” value with uterine fibroids (NETA treatment group, first menstruation following treatment completion compared to baseline, p=0.012 vs placebo) is −122. The compound further gave a women reporting events in data set [1] (double-blind treatment phase, 10 days after UPA) of 11.2%. For the same compound, the “women with TEAEs” value in data set [1] (post-treatment phase) was found to be 26.5%. Besides, the “extensive cyst formation (one of the features of PAEC)” value in the data set on endometrium [2] (after NETA treatment) is reported as 2.4%. Moreover, the “percentage of non-physiological endometrial features” value in the data set with endometrium [2] (after treatment, 10.9% at screening) was determined as 22.6%. For the same compound, the endometrial polyp result in the data set on endometrium [2] (biopsy 12 weeks after UPA treatment) is on record as “one benign endometrial polyp”. In addition, the “cases of PAEC” value with endometrium [2] (biopsy 12 weeks after UPA treatment, subgroup) was “no case of PAEC”. In addition, in the data set with endometrium [3], the “percentage of women with endometrial thickness >16 mm” value is reported as 3.5%. In addition, the “heaviness of bleeding as measured by the PBAC score (days 1-8)” value in data set [4] (first menstruation after each treatment course) was “decrease after each subsequent treatment course”. Also, the “median times to return of menstruation following discontinuation of UPA” value in data set [4] (treatment courses 1-4, NETA group compared to placebo group, p<0.001) is listed as “significantly shorter”. Further, the “safety and tolerability assessment” value in data set [5] is “did not raise any safety concerns”. In addition, in the data set on endometrium [6], the “endometrium thickness, comparison of the 2 treatment groups” value was “placebo group were higher compared to those for the NETA group”.
